Read-outs that look alike come from different tables or passages of the source.
Legend:
[1] = DPPH radical scavenging assay; assay type: biochemical; settings: for Antioxidant ability in the DPPH radical capture assay: test doses 1-200 µM
From the text: (§1) Both colorimetric assays are being used to estimate the radical scavenging capacity of organic and inorganic compounds [71, 72]. When DPPH reacts with an antioxidant compound, its free radical property is lost, and its color changes from violet to yellow. In the presence of an antioxidant, the ABTS radical, which has a strong absorption band at 734 nm, will be scavenged, and the reaction mixture will turn from blue to green. The results are expressed as a percentage of inhibition of DPPH radical or ABTS^+ radical when compared to samples from the control group (DMSO) without the compounds/standard (0% of radical inhibition). The experiment was repeated three times at each concentration.
DPPH assay: To determine the 1,1-diphenylpicrylhydrazyl (DPPH) radical scavenging activity, different concentrations of compounds (1, 5, 10, 50, 100, and 200 μM) were mixed with a methanolic solution of 0.1 mM DPPH radical for 30 min at 30 °C in the dark. The absorbance of the mixture was measured spectrophotometrically at 517 nm. The coloration change of the DPPH ethanolic solution from deep purple to yellow indicates the presence of antioxidants and then the free radical scavenging effect of these compounds. The ascorbic acid at 1, 10, 100, and 200 µM was used as a positive control to determine the maximal decrease in the DPPH absorbance. The percentage of DPPH radical scavenging activity was calculated by the following equation:% DPPH radical scavenging activity = {(A0 − A1)/A0} × 100 where A0 is the absorbance of the control, and A1 is the absorbance of the compounds/standard.

[2] = ABTS radical cation scavenging assay; assay type: biochemical
From the text: as §1
The radical cation ABTS was previously generated with sodium persulfate in the presence of potassium phosphate buffer. Briefly, the ABTS solution diluted in a phosphate buffer saline pH 7.4 was mixed with an aliquot of the compound for 30 min at room temperature in the dark. The ascorbic acid at 1, 10, 100, and 200 µM was used as a positive control to determine the maximal decrease in the ABTS^+ absorbance. The color reaction was measured at 730 nm and the results were expressed as a percentage (%) of the control. The ABTS radical scavenging capacity was calculated by the following equation: % ABTS^+ radical scavenging activity = {(A0 − A1)/A0} × 100 where A0 indicates the absorbance of the blank and A1 indicates the absorbance in the presence of the test sample.

V79 cells = experiment: MTT cell viability assay, V79 cells; assay type: cell-based, Chinese hamster; settings: Cricetulus griseus, V79, 24 h; read-out: IC50 V79 cell line
Procedure: (§2) Chinese hamster lung fibroblast (V79) cells and human cell lines [MCF-7 (breast adenocarcinoma), SW620 (colorectal adenocarcinoma), and MRC-5 (normal lung fibroblast)] were obtained from the Rio de Janeiro Cell Bank (Rio de Janeiro, RJ, Brazil). The cell lines were grown in DMEM supplemented with 10% heat-inactivated FBS or RPMI-1640 supplemented with 20% FBS, 0.2 mg/mL L-glutamine, 100 IU/mL penicillin, and 100 µg/mL streptomycin. Cells were kept in tissue culture flasks at 37 °C in a humidified atmosphere containing 5% CO2 and were harvested by treatment with 0.15% trypsin −0.08% EDTA in PBS.
The cytotoxic potential of all compounds was measured by the methylthiazol tetrazolium (MTT) assay in Chinese hamster lung fibroblasts and human cell lines. Cell lines were cultured in a 96-well plate (1 × 10^4 cells/well) in complete media. […] The activity of this solvent alone was measured by a blank sample solution containing the same amount of DMSO. After the exposure period, the culture media were replaced with the addition of 100 µL serum-free media containing the 3-(4,5-dimethylthiazol-2-yl)-2,5-diphenyltetrazolium bromide) (MTT) dye (1 mg/mL), and incubated for 3 h at 37 °C After incubation, the supernatant was removed, the residual purple formazan product was solubilized in 150 µL DMSO, and its absorbance was measured at 570 nm. […]

[3] = test system: MRC-5 (normal lung fibroblast); experiment: MTT cell viability assay, MRC-5; assay type: cell-based, human; settings: for Concentration at which cytotoxicity starts, MRC-5: 24 h and 72 h; for IC50: Homo sapiens
Procedure: as §2
(§3) The cytotoxic potential of all compounds was measured by the methylthiazol tetrazolium (MTT) assay in Chinese hamster lung fibroblasts and human cell lines. Cell lines were cultured in a 96-well plate (1 × 10^4 cells/well) in complete media. V79 cells were treated for 24 h with all compounds at concentrations of 1, 10, 50 and100 µM. […] All compounds were dissolved in DMSO and added to the medium to reach the desired concentrations (0.1% of DMSO). The activity of this solvent alone was measured by a blank sample solution containing the same amount of DMSO. After the exposure period, the culture media were replaced with the addition of 100 µL serum-free media containing the 3-(4,5-dimethylthiazol-2-yl)-2,5-diphenyltetrazolium bromide) (MTT) dye (1 mg/mL), and incubated for 3 h at 37 °C After incubation, the supernatant was removed, the residual purple formazan product was solubilized in 150 µL DMSO, and its absorbance was measured at 570 nm. The assay was performed in triplicate.

[4] = test system: SW620 (colorectal adenocarcinoma); experiment: MTT cell viability assay, SW620; assay type: cell-based, human; settings: for Concentration at which cytotoxicity starts, SW620: 24 h and 72 h; for IC50: Homo sapiens
Procedure: as §2, §3

[5] = test system: MCF-7 (breast adenocarcinoma); experiment: MTT cell viability assay, MCF-7; assay type: cell-based, human; settings: for Concentration at which cytotoxicity starts, MCF-7: 24 h and 72 h; for IC50: Homo sapiens
Procedure: as §2, §3

MCF-7 [6] = experiment: Clonogenic assay, MCF-7; assay type: cell-based, human; settings: 72 h treatment
Procedure: (§4) MCF-7, MRC-5, and SW620 human cell lines were seeded in 6-well plates at a density of 300 cells per well containing 1 mL of medium. […] The cell culture medium was changed to a new medium every 2 days. Cells were washed twice with PBS and fixed with methanol for 30 min, followed by staining with 0.5% crystal violet. The assay was performed in triplicate. Colonies were manually counted, and colony survival was presented as a percentage relative to the respective negative control.

SW620 [7] = experiment: Clonogenic assay, SW620; assay type: cell-based, human; settings: 72 h treatment
Procedure: as §4

MRC-5 [8] = experiment: Alkaline comet assay, MRC-5; assay type: cell-based, human; settings: for Damage Índex (DI) ± SD, MRC-5: 3 h
Procedure: (§5) For genotoxicity assays, 1.0 × 10^4 cells were seeded on twenty-four-well plates and incubated for 24 h. […] Each dose was evaluated by three independent experiments. The alkaline comet assay was performed as described by Singh et al.. Following treatment, cells were trypsinized and resuspended in a complete medium. Slides were prepared with 20 μL of cellular suspension and were dissolved in 0.75% low melting-point agarose. Slides were immersed in cold lysis buffer (2.5 M NaCl, 100 mM EDTA, 10 mM Tris, 1% Triton X-100, 10% DMSO, pH 10) for at least 1 h. Slides were placed in an electrophoresis chamber with cold alkaline buffer (300 mM NaOH and 1 mM de EDTA, pH > 13) to unwind the DNA. Electrophoresis was performed at 0.7 V/cm, 300 mA for 30 min at 4 °C. Slides were then neutralized with Tris–HCl buffer (pH 7.5) for 15 min and stored at room temperature. Slides were stained with silver staining protocol. The gels were then left to dry overnight at room temperature before being analyzed. From two replicate slides, 100 cells were selected and analyzed for DNA migration. Migration of DNA fragments was determined according to comet class as described by Azqueta: class 0, intact nuclei, without tail; class 1, nuclei with tail less than the diameter of the nucleus; class 2, tail size varying between one and two times the diameter of the nucleus; class 3, tail size varying between two and three times the diameter of the nucleus; and class 4, tail size more than three times the diameter of the nucleus but with the head and tail of the comet still distinguishable. The DI ranges from 0 (100 completely undamaged cells × 0) to 400 (100 cells with maximum damage × 4).

MCF-7 [9] = experiment: Alkaline comet assay, MCF-7; assay type: cell-based, human; settings: for Damage Índex (DI) ± SD, MCF-7: 3 h
Procedure: as §5

SW620 [10] = experiment: Alkaline comet assay, SW620; assay type: cell-based, human; settings: for Damage Índex (DI) ± SD, SW620: 3 h
Procedure: as §5

MRC-5 [11] = experiment: Clonogenic assay, MRC-5; assay type: cell-based, human; settings: 72 h treatment; general statement covers MCF-7, SW620 and MRC-5
Procedure: as §4

[12] = test system: SW620 (colorectal adenocarcinoma); settings: 72 h; cited from earlier work
[13] = test system: MCF-7 (breast adenocarcinoma); set-up: method as in PMID 36592511; settings: 72 h; cited from earlier work

Row | Structure (SMILES) | Antioxidant ability in the DPPH radical capture assay [1] | IC50 (V79 cells) [µM] | Concentration at which cytotoxicity starts, MRC-5 [3] [µM] | IC50 ([3]; MRC5, 24 h) [µM] | IC50 ([3]; MRC5, 72 h) [µM] | Concentration at which cytotoxicity starts, SW620 [4] [µM] | IC50 ([4]; SW-620, 24 h) [µM] | IC50 ([4]; SW-620, 72 h) [µM] | Concentration at which cytotoxicity starts, MCF-7 [5] [µM] | IC50 ([5]; MCF7, 24 h) [µM] | IC50 ([5]; MCF7, 72 h) [µM] | Inhibition of colony survival, SW620 compared with MRC-5 (SW620 [7]) | Concentrations that increase damage index (DI), MRC-5 (MRC-5 [8]) | Damage Índex (DI) ± SD, MRC-5 (MRC-5 [8]; 1 μM) | Damage Índex (DI) ± SD, MRC-5 (MRC-5 [8]; 10 μM) | Damage Índex (DI) ± SD, MRC-5 (MRC-5 [8]; 50 μM) | Damage Índex (DI) ± SD, MRC-5 (MRC-5 [8]; 100 μM) | Concentrations that increase damage index (DI), MCF-7 (MCF-7 [9]) | Damage Índex (DI) ± SD, MCF-7 (MCF-7 [9]; 1 μM) | Damage Índex (DI) ± SD, MCF-7 (MCF-7 [9]; 10 μM) | other results
1 | CC(C)(C)c1cc(/C=N/CCNc2ccccc2)c(O)c(C(C)(C)C)c1 [1a] | inability to be antioxidants | 23 | 10 | 14.7 ± 1.1 | 17.1 | 10 | 27.6 ± 1.2 | 16.4 | 10 | 30.5 ± 4.4 | 28.6 | not selective | 10 to 100 µM | 19.3 ± 3.9 | 39.7 ± 9.5 | 121.3 ± 10.0 | 200.3 ± 22.0 | 10 to 100 µM | 14.7 ± 3.2 | 34.3 ± 4.2 | Concentration from which ABTS+ radical scavenging activity is present [2]: 5 µM; Imax (% of maximal inhibition), ABTS+ [2]: up to 87%; IC50 ([2]; concentration to decrease 50% of ABTS+ radical formation): 7.5 ± 2.2 µM; Inhibition of colony survival, MCF-7 compared with MRC-5 (MCF-7 [6]): not selective; Damage Índex (DI) ± SD, MCF-7 (MCF-7 [9]; 50 μM): 100.7 ± 2.9; Damage Índex (DI) ± SD, MCF-7 (MCF-7 [9]; 100 μM): 154.7 ± 7.2; Concentrations that increase damage index (DI), SW620 (SW620 [10]): 50 µM and 100 µM; Damage Índex (DI) ± SD, SW620 (SW620 [10]; 1 μM): 16.7 ± 2.5; Damage Índex (DI) ± SD, SW620 (SW620 [10]; 10 μM): 21.3 ± 6.7; Damage Índex (DI) ± SD, SW620 (SW620 [10]; 50 μM): 107.0 ± 7.2; Damage Índex (DI) ± SD, SW620 (SW620 [10]; 100 μM): 212.3 ± 2.5
2 | CC(C)(C)c1cc(/C=N/c2cccc3cccnc23)c(O)c(C(C)(C)C)c1 [1b, [6-(C9H6N-8-(N=CH))-2,4-di-tert-butyl-(OHC6H2)]] | inability to be antioxidants | 69 ± 9 | 10 | 63.4 ± 5.5 | 15.5 | 1 | 41.9 ± 9.7 | 10.5 | 10 | 111 ± 9.5 | 44.5 | more potent inhibitory effect on the SW620 cells than on MRC-5 cells | 50 µM and 100 µM | 16.3 ± 2.5 | 20.0 ± 5.2 | 101.0 ± 5.0 | 135.0 ± 6.2 | 50 µM and 100 µM | 16.0 ± 4.0 | 22.3 ± 6.4 | ABTS+ radical scavenging activity ([2]; doses 1-200 µM): inactive at all doses; Inhibition of cell proliferation at the highest treatment concentrations tested (colony survival) (MRC-5 [11]): not statistically significant; Damage Índex (DI) ± SD, MCF-7 (MCF-7 [9]; 50 μM): 52.7 ± 9.5; Damage Índex (DI) ± SD, MCF-7 (MCF-7 [9]; 100 μM): 102.0 ± 6.0; Concentrations that increase damage index (DI), SW620 (SW620 [10]): ≥ 10 µM; Damage Índex (DI) ± SD, SW620 (SW620 [10]; 1 μM): 10.0 ± 1.0; Damage Índex (DI) ± SD, SW620 (SW620 [10]; 10 μM): 34.7 ± 7.4; Damage Índex (DI) ± SD, SW620 (SW620 [10]; 50 μM): 120.0 ± 5.3; Damage Índex (DI) ± SD, SW620 (SW620 [10]; 100 μM): 236.0 ± 8.2
3 | O=c1[nH]cc(F)c(=O)[nH]1 [5-Fluorouracil] |  |  |  |  |  |  |  |  |  |  |  |  |  |  |  |  |  |  |  |  | IC50 [12]: 4 µM
4 | O=C1O[C@H]([C@@H](O)CO)C(O)=C1O [Ascorbic acid, ascorbic acid, reference compound] |  |  |  |  |  |  |  |  |  |  |  |  |  |  |  |  |  |  |  |  | IC50 ([1]; concentration to decrease 50% of DPPH radical formation): 17 µM
5 | N.N.[Cl][Pt][Cl] [cisplatin] |  |  |  |  |  |  |  |  |  |  |  |  |  |  |  |  |  |  |  |  | IC50 [13]: 12.7 ± 0.1 µM
